ChEMBL document CHEMBL4483862, “Open-source discovery of chemical leads for next-generation chemoprotective antimalarials” (2018)

System: Plasmodium berghei
Experiment: Luciferase/luciferin-expressing antifolate-resistant parasites were used to infect a culture of HepG2 cells that were pre-incubated with compounds. Infected hepatocytes emit light due to the luciferase reaction. Assay results are presented as the percent inhibition of light emission compared to control. […]
Format: functional
Settings: sporozoite; for IC50: read-out: LUCIFERASE INFECTION ASSAY - IC50; for IC90: read-out: LUCIFERASE INFECTION ASSAY - IC90

Row | SMILES | IC50 | IC90
1 | Cc1ccc2nc(C(F)(F)F)c(C(=O)NCc3cc(Cl)cc(Cl)c3)n2c1 | > 8.2 µM | > 8.2 µM
2 | Cc1cccc(OC2CCN(C(=O)NCc3cc[nH]n3)CC2)c1C | > 10 µM | > 10 µM
3 | CCOC(=O)c1ccc(S(=O)(=O)N2CCC(N(C)C)CC2)cc1 | > 10 µM | > 10 µM
4 | O=C(Nc1cccc(F)c1)N1CCC2(CC1)OCc1cc(-c3ccco3)ccc1O2 | > 8.08 µM | > 8.08 µM
5 | O=C1CN(c2ccc(NC(=O)CCc3ccco3)cn2)CCN1 | > 10 µM | > 10 µM
6 | COc1cccc(CC(=O)N2CCCC(C(=O)NCC3CC3)C2)c1 (stereo not given) | > 10 µM | > 10 µM
7 | O=S(=O)(Nc1nn(Cc2ccc(C(F)(F)F)cc2)c2ccccc12)c1cccc2nsnc12 | > 6.74 µM | > 6.74 µM
8 | CC(C)c1nccn1Cc1cccc(NC(=O)c2ccc(Br)o2)c1 | > 10 µM | > 10 µM
9 | CC(NC(=O)CN1CCCc2c(F)cc(F)cc21)c1ccco1 (stereo not given) | > 10 µM | > 10 µM
10 | CS(=O)(=O)N1CCCC(C(=O)NC(c2ccccc2)C2CCCCC2)C1 (stereo not given) | > 10 µM | > 10 µM
11 | CC(C)c1noc(CCC(=O)Nc2ccc(F)cc2F)n1 | > 10 µM | > 10 µM
12 | COc1ccc(N2CCN(c3nccnc3-c3ccccc3)CC2)cc1OC | 0.382 µM | 0.978 µM
13 | CCSc1nc2scc(C(F)(F)F)n2c(=O)c1C(=O)N1CC(C)CC(C)C1 (stereo not given) | > 7.87 µM | > 7.87 µM
14 | O=C(Nc1cccc2c[nH]nc12)c1cn(-c2ccccc2Br)nn1 | > 10 µM | > 10 µM
15 | CC1CCc2ccccc2N1CC(=O)N(CCC(N)=O)Cc1ccccc1 (stereo not given) | > 10 µM | > 10 µM
16 | COc1cc(C)ccc1Oc1ccc(NC(=O)NC2CCN3CCCCC23)cn1 (stereo not given) | > 10 µM | > 10 µM
17 | COc1ccc(NC(=O)c2cccc(Cl)c2)cc1OCc1cccnc1 | > 10 µM | > 10 µM
18 | CCN(Cc1cccc(F)c1)C(=O)Nc1ccccc1-n1nc(C)cc1C | > 10 µM | > 10 µM
19 | CCc1nc(COC(=O)c2c(C)nsc2NC)cs1 | 1.53 µM | 5.52 µM
20 | CC(=O)c1csc(NC(=O)c2cc(C(C)C)nc3c2c(C)nn3C(C)(C)C)n1 | > 10 µM | > 10 µM
21 | COc1ccc(-c2cnc3ccc(NCc4ccc5c(c4)OCO5)nn23)cc1 | 0.746 µM | 1.36 µM
22 | Cc1c(C(=O)Nc2cccc(Oc3ccccc3)c2)sc(=O)n1Cc1ccncc1 | > 7.9 µM | > 7.9 µM
23 | O=C(Nc1nnc[nH]1)C1(c2ccc(F)cc2)CC1 | > 10 µM | > 10 µM

Row | SMILES | IC50 | IC90
24 | CC(=O)NCCc1nccn1Cc1ccccc1 | > 10 µM | > 10 µM
25 | Cc1c(C(=O)NC2CC2)sc(=O)n1Cc1ccc(-c2ccccc2)cc1 | 1.9 µM | 8.88 µM
26 | Cc1cc(C(=O)NC(C)Cc2ccc(Br)cc2)on1 (stereo not given) | > 10 µM | > 10 µM
27 | Cc1ccccc1S(=O)(=O)Nc1nccnc1N1CCN(S(=O)(=O)c2cccc3ccccc23)CC1 | > 6.3 µM | > 6.3 µM
28 | O=C(Nc1nc(-c2cccs2)cs1)c1c[nH]c(C(=O)N2CCCC2)c1 | > 10 µM | > 10 µM
29 | c1ccc(Oc2ccccc2-c2cnc3c(NCc4cccs4)nccn23)cc1 | 4.96 µM | > 8.28 µM
30 | CCOC(=O)Nc1cccc(N)c1C | > 10 µM | > 10 µM
31 | O=C(CNc1ccccc1-c1ccccc1)NCC(F)(F)F | > 10 µM | > 10 µM
32 | FC(F)(F)Oc1ccc(Nc2cc(-c3cccc(Cl)c3)ncn2)cc1 | > 9.02 µM | > 9.02 µM
33 | COc1cc(-c2cccc(Nc3cccc(OC(F)(F)C(F)F)c3)n2)cc(OC)c1OC | > 7.29 µM | > 7.29 µM
34 | Cc1ccc(Br)cc1NC(=O)C(C)NC(=O)OC(C)(C)C (stereo not given) | > 10 µM | > 10 µM
35 | CCOC(=O)c1c[nH]nc1S(=O)(=O)Nc1ccc[nH]c1=O | > 10 µM | > 10 µM
36 | Cc1ccccc1C(c1ncccc1C)N(C)C(=O)C1CCN(C(=O)c2cccc(Cl)c2)CC1 (stereo not given) | > 6.93 µM | > 6.93 µM
37 | CC1CCN(C(=O)CSC(F)(F)F)CC1 | > 10 µM | > 10 µM
38 | Cc1cc(C)c(NC(=O)NCCCOCC(C)C)c(Cl)c1 | > 10 µM | > 10 µM
39 | COc1cccc(CN2CCC2(C)C(=O)Nc2ccccc2Cc2ccccc2)c1OC (stereo not given) | > 7.66 µM | > 7.66 µM
40 | Cc1ccsc1C(=O)Nc1ccc(N2CCN(C)CC2)cn1 | 0.0143 µM | 0.343 µM
41 | Cc1ccc(S(=O)(=O)CCC(=O)OCC(=O)NCC2CCCO2)cc1 (stereo not given) | > 10 µM | > 10 µM
42 | Cc1cc(=O)n2nc(COC(=O)c3ccccc3Nc3ccccc3)sc2n1 | > 10 µM | > 10 µM
43 | COc1cccc(C(=O)Nc2cccc(Nc3ccc(-c4cc(OC)c(OC)c(OC)c4)cn3)c2)c1 | > 6.8 µM | > 6.8 µM
44 | Clc1ccc(-c2cnc3ccc(NCc4ccc5c(c4)OCO5)nn23)cc1 | > 8.71 µM | > 8.71 µM
45 | CCc1nnc(Sc2ncnc3ccsc23)[nH]1 | > 10 µM | > 10 µM
46 | O=C(COC(=O)Cc1ccsc1)Nc1cc(Cl)ccc1-n1cncn1 | > 10 µM | > 10 µM

Row | SMILES | IC50 | IC90
47 | CC(C)c1ccc(CS(=O)(=O)C(C)C(=O)NC2CCCC2)cc1 (stereo not given) | > 10 µM | > 10 µM
48 | COc1ccc(-c2cnc3ccc(NCc4ccc(Cl)c(Cl)c4)nn23)cn1 | 4.63 µM | 4.73 µM
49 | Clc1ccc(OCc2cccnc2)c(CN2CCN(c3ncccn3)CC2)c1 | > 10 µM | > 10 µM
50 | CN(C)C(=O)CC(NC(=O)Nc1ccc(F)cc1F)c1ccccc1 (stereo not given) | > 10 µM | > 10 µM
51 | CCn1c(NC(=O)C2=NOC(c3ccccc3)C2)nc2ccccc21 (stereo not given) | 3.35 µM | 3.82 µM
52 | CCn1c2ccccc2c2cc(Nc3cc(-c4ccc(O)cc4)ncn3)ccc21 | 2.24 µM | 5.79 µM
53 | COc1ccccc1-c1cnc2c(Nc3ccc(NS(=O)(=O)c4ccc(C)cc4)cc3)nccn12 | 1.57 µM | > 6.8 µM
54 | CN(C)c1ccc(C(=O)Oc2ccc(-c3nnco3)cc2)cn1 | > 10 µM | > 10 µM
55 | CN(C)C(=O)Cc1nc(CSc2nc3ncccn3n2)cs1 | > 10 µM | > 10 µM
56 | COc1ccc(-c2ccc3c(c2)COC2(CCN(C(=O)c4cc(F)ccc4C)CC2)O3)cc1OC | > 6.91 µM | > 6.91 µM
57 | Cn1ccnc1CN(C(=O)c1cnn(-c2ccccc2)c1)C1CC1 | > 10 µM | > 10 µM
58 | COc1ccc(C(N)=O)cc1NC(=O)NCc1ccc(N2CCCCCC2)nc1 | > 10 µM | > 10 µM
59 | CN(C)CCNC(=O)c1ccc(-c2cnc3c(Nc4ccc(Oc5ccccc5)cc4)nccn23)cc1 | > 6.7 µM | > 6.7 µM
60 | Cc1onc(-c2ccccc2)c1C(=O)NCC1COCCO1 (stereo not given) | > 10 µM | > 10 µM
61 | CNC(=O)NC(=O)C(C)N1CCN(CCc2cccs2)CC1 (stereo not given) | > 10 µM | > 10 µM
62 | COc1cccc(C(=O)Nc2cccc(Nc3ccc(-c4cccc(NC(C)=O)c4)cn3)c2)c1 | > 7.29 µM | > 7.29 µM
63 | CNc1snc(C)c1C(=O)OCc1nc(C(C)C)no1 | 6.11 µM | 6.24 µM
64 | CCOc1cc(C(=O)N2CCOCC2)ccc1OCc1cccnc1 | > 10 µM | > 10 µM
65 | Cc1cccc(NC(=O)N2CCC3(CC2)OCc2cc(-c4ccc(OC(F)(F)F)cc4)ccc2O3)c1 | > 6.62 µM | > 6.62 µM
66 | Cc1ccc(-c2csc(NC(=O)CCn3ccnc3)n2)c(C)c1 | > 10 µM | > 10 µM
67 | Cc1nc2sccn2c1C(=O)NCc1ccccc1Oc1ccccc1 | > 9.08 µM | > 9.08 µM
68 | O=C(Nc1cccc(Cn2ccnc2)c1)c1nn(-c2ccccc2)c2c1CCC2 | > 10 µM | > 10 µM
69 | Nc1cccc(OCc2cccnc2)c1 | > 10 µM | > 10 µM

Row | SMILES | IC50 | IC90
70 | Cc1cc(NC(=O)CCc2ccc(C)c(Cl)c2)n(C)n1 | > 10 µM | > 10 µM
71 | Cn1c(Cn2nnc(-c3cccc(F)c3)n2)nc2ccccc2c1=O | > 10 µM | > 10 µM
72 | CC(Cn1cccn1)NCc1ccc(F)c(F)c1 (stereo not given) | > 10 µM | > 10 µM
73 | CN(C)c1ccc(CNC(=O)C2CCN(C(=O)NCc3ccco3)CC2)cc1 | > 10 µM | > 10 µM
74 | CCCS(=O)(=O)N1CCC(NC(=O)c2scnc2C)CC1 | > 10 µM | > 10 µM
75 | CCc1nc2ccc(C(=O)N3CCCCC3)cn2c1N(C)CCC(C)C | > 9.26 µM | > 9.26 µM
76 | COc1ccc(-c2ccc3c(c2)COC2(CCN(C(=O)c4ccc(F)cc4F)CC2)O3)cc1OC | > 6.85 µM | > 6.85 µM
77 | CC(CNC(=O)C1(C)CC1(Cl)Cl)N(C)c1ccccc1 (stereo not given) | > 10 µM | > 10 µM
78 | Cc1cc(NC(=O)c2ccco2)sc1C(=O)Nc1nnc[nH]1 | > 10 µM | > 10 µM
79 | Cn1ncc2c(=O)n(Cc3sc4ccccc4c3Cl)cnc21 | > 10 µM | > 10 µM
80 | O=C(Nc1ccc2oc(=O)[nH]c2c1)c1cnn(-c2ccc(Cl)cc2)c1 | > 10 µM | > 10 µM
81 | COc1ccc2c(c1)CCCN2Cc1nn2c(=O)cc(C)nc2s1 | > 10 µM | > 10 µM
82 | COc1ccccc1CNc1cccc2cnccc12 | > 10 µM | > 10 µM
83 | CC1(C(=O)NC2CCN(S(C)(=O)=O)CC2)CC1(Cl)Cl (stereo not given) | > 10 µM | > 10 µM
84 | O=C(NCc1ccc(-n2cccn2)cc1)c1[nH]nc(C2CC2)c1Br | 1.27 µM | 1.52 µM
85 | CN(C)c1cccc(Nc2nccn3c(-c4ccc5c(c4)OCO5)cnc23)c1 | 0.365 µM | 2.84 µM
86 | Cc1cc(C(=O)NC2CCN(c3ncnc4sc5c(c34)CCCC5)CC2)on1 | > 10 µM | > 10 µM
87 | CCCc1nc(C)c(C(=O)Nc2nccn2Cc2ccccc2)s1 | > 10 µM | > 10 µM
88 | CCn1c(=O)n(CC(=O)Nc2ccc(NC(=O)NC3CC3)cc2)c2ccccc21 | > 10 µM | > 10 µM
89 | COc1ccccc1-c1cc(C(=O)Nc2ccc(N3CCCC3)cc2)no1 | > 10 µM | > 10 µM
90 | Clc1cncc(Cl)c1N1CCN(c2ccc(-c3cccnc3)cn2)CC1 | 0.996 µM | > 8.54 µM
